The values that follow come from PMC6438784 (Saudi Pharmaceutical Journal : SPJ, 2019).

The conditions of series [1]: rats; ref Kapetanovic et al., 2011; cited from earlier work.
Series [2] relates to UGT1A6. Particulars: UGT1A6 inhibition; ref Sridar et al., 2004; cited from earlier work.
Series [3] concerns the target T1, UGT1A1 (Homo sapiens, UniProt P22309).
T1 sequence (P22309 26-533): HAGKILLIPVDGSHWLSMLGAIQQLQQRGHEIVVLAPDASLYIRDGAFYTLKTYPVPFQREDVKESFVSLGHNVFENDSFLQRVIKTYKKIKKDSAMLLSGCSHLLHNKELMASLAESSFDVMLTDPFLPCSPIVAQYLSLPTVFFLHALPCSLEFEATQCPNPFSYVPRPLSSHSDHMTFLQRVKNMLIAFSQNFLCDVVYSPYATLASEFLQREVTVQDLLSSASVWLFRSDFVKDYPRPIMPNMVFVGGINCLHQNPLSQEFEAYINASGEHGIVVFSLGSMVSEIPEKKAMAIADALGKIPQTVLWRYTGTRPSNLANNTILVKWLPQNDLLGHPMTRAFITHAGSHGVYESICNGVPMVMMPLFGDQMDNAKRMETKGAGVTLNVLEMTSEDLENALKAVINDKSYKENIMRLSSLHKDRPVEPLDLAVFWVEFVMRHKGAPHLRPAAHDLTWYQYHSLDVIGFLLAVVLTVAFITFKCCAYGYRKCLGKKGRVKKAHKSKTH
In words: UGT1A1 inhibition in HLM, β-estradiol glucuronidation. The series is classed as in vitro ADME.

For series [4] the following is noted: ref Riche et al., 2013, cited from earlier work.
In series [5] the target is T2, CYP2C8 (Homo sapiens, UniProt P10632).
T2 sequence (P10632 1-490): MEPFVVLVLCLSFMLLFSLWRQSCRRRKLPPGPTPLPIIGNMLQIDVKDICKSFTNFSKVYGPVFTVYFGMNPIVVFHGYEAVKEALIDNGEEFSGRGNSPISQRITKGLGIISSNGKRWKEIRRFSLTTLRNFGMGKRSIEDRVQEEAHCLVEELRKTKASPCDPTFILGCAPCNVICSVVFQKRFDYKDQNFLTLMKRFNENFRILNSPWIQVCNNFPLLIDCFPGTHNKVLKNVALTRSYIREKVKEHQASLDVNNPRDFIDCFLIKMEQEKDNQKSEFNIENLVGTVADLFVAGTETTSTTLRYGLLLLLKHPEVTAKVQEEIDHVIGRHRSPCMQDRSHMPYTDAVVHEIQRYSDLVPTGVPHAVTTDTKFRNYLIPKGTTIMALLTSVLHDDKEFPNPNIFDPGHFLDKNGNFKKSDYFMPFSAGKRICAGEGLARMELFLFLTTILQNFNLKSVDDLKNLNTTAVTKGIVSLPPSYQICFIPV
The series is described as follows: CYP2C8 inhibition in pooled HLM, amodiaquine to desethylamodiaquine. It counts as in vitro ADME. Particulars: for IC50: amodiaquine.

For series [6], the target named is T3, UGT1A9 (Homo sapiens, UniProt O60656).
T3 sequence (O60656 26-530): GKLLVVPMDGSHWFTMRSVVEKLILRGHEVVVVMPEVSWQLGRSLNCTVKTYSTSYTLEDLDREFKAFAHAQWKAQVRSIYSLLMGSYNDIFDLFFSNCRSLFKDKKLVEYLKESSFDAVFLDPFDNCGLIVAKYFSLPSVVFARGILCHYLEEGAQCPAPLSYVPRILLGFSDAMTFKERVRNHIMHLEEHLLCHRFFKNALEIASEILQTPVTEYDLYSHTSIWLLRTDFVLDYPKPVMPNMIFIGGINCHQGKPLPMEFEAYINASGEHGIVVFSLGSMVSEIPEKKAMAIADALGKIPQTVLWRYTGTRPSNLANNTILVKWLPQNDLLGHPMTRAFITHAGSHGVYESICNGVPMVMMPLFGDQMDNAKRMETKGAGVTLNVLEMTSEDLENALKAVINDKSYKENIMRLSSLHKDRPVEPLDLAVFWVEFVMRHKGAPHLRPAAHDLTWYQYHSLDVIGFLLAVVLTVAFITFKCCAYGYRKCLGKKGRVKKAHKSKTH
The series is described as follows: UGT1A9 inhibition in HLM, mycophenolic acid glucuronidation. The series is classed as in vitro ADME.

Series [7] has as its system UGT1A8/10. The series is described as follows: UGT1A8/10 inhibition in HIM, mycophenolic acid glucuronidation. It counts as in vitro ADME, human.
In series [8] the target is T4, UGT1A6 (Homo sapiens, UniProt P19224).
T4 sequence (P19224 27-532): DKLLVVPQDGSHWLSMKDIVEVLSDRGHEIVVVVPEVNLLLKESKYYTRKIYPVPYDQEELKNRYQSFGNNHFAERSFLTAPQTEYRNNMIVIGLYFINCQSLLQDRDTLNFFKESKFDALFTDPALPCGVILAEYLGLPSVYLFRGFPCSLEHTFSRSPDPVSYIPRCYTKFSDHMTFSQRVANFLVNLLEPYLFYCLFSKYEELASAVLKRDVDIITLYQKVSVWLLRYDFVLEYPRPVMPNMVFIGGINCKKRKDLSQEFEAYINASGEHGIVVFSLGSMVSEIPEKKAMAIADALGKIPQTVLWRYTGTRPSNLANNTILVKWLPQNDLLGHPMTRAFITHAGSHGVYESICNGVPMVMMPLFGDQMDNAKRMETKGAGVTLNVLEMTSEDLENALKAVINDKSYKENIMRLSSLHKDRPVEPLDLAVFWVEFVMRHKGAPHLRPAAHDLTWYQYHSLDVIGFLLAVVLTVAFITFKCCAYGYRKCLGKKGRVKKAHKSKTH
The series is described as follows: UGT1A6 inhibition in HLM, serotonin glucuronidation. The series is classed as in vitro ADME. Particulars: for IC50: HLM.

The target in series [9] is T2, CYP2C8. In words: CYP2C8 inhibition in pooled HLM, pioglitazone to hydroxypioglitazone. It counts as in vitro ADME.
For series [10] the following is noted: rats, ref Yeo et al., 2013, cited from earlier work.
Setting [11] is: initial screening, RDI 250 mg / rough IC50.

Where two headings read alike, the source gives them in different places. Bounds are passed on as bounds.

On to `Oc1ccc(/C=C/c2cc(O)cc(O)c2)cc1` [resveratrol], for which the Bioavailability in [1] was 20%.
`COc1cc(C2Oc3cc([C@H]4Oc5cc(O)cc(O)c5C(=O)[C@@H]4O)ccc3OC2CO)ccc1O` (some centres unmarked) [Silybin]: in [2], the IC50 was 28 µM.
With `COc1cc(/C=C/c2ccc(O)cc2)cc(OC)c1` [pterostilbene], the IC50 in series [3] (Rough IC50, initial screening, HLM, β-estradiol) was greater than 500 µM; in [5] (Precise IC50, confirmatory experiment, HLM, mean ± SE), 3.12 µM; in series [5] (Rough IC50, initial screening, pooled HLM, desethylamodiaquine formation, mean ± standard error), 26.9 ± 5.6 µM; in series [6], greater than 100 µM; in series [8] (Precise IC50, confirmatory experiment, serotonin, mean ± SE), 15 µM; in series [8] (Rough IC50, initial screening, serotonin glucuronide formation, mean ± standard error) it was 26.7 ± 40.7 µM. This compound also registered an IC50 in series [9] of 17.9 ± 2.2 µM. Further, the inhibition at 30 min is less than 50% in series [3] (human, human liver microsomes, pH 7.4, probe β-estradiol (25 μM)) and less than 50% in series [6] (human, human liver microsomes, pH 7.4, probe mycophenolic acid (240 μM)). Moreover, the V/D index in [3] (setting [11]) is less than 2 L/dose; in series [5] (setting [11]), 36.30 L/dose; in series [6] (setting [11]), 3.89 L/dose; in series [7] (setting [11]) it was 10.53 L/dose; in [8] (setting [11]) it was 36.50 L/dose. In series [4] (250 mg daily dose), the “Effect on blood pressure” value is listed as “reduction in blood pressure”. Besides, the “Safety of long term use” value in series [4] (humans, 250 mg/day) was “safe”. Moreover, the IC50 at 30 min in series [7] (human, human intestinal microsomes, pH 7.4, probe mycophenolic acid (70 μM)) came to 92.7 ± 18.4 µM. The compound also came in with a VDI in series [7] (initial screening) of 10.5 L. In [10] (fasting), the “Decrease of bioavailability by fasting” value is reported as roughly 55%. Besides, the Clearance result in series [10] (intravenous dose of 2.5 mg/kg) was “rapid”. Besides, the Bioavailability in series [10] (oral aqueous solution) is 15%.

A word on the IC50: it is the concentration that gives 50% inhibition. As a reminder, the inhibition is the percentage by which the read-out fell short of the control. Higher therefore signals strong suppression.
